Reference: article PMC10504751, “Chalcone/1,3,4-Oxadiazole/Benzimidazole hybrids as novel anti-proliferative agents inducing apoptosis and inhibiting EGFR & BRAFV^600E” (BMC Chemistry, 2023)

Key:
Assay in all cases: NCI one-dose SRB anti-proliferative screen
Type in all cases: cell-based
NCI-H23 = details: Homo sapiens; NCI-H23 (Non-Small Cell Lung Cancer), NCI one dose 10 µM; read-out: Cell growth inhibition %
Outline: (§1)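 Sulforhodamine B colorimetric read-out of growth inhibition across the NCI 60-cell-line, nine-subpanel screen. Each compound was given at one 10 µM dose.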

PC-3 = details: Homo sapiens; PC-3 (Prostate Cancer), NCI one dose 10 µM; read-out: Cell growth inhibition %
Outline: as §1

SW-620 = details: Homo sapiens; SW-620 (Colon Cancer), NCI one dose 10 µM; read-out: Cell growth inhibition %
Outline: as §1

OVCAR-4 = details: Homo sapiens; OVCAR-4 (Ovarian Cancer), NCI one dose 10 µM; read-out: Cell growth inhibition %
Outline: as §1

IGROV1 = details: Homo sapiens, IGROV-1; IGROV1 (Ovarian Cancer), NCI one dose 10 µM; read-out: Cell growth inhibition %
Outline: as §1

HCT-15 = details: Homo sapiens; HCT-15 (Colon Cancer), NCI one dose 10 µM; read-out: Cell growth inhibition %
Outline: as §1

MCF7 = details: Homo sapiens; MCF7 (Breast Cancer), NCI one dose 10 µM; read-out: Cell growth inhibition %
Outline: as §1

OVCAR-8 = details: Homo sapiens; OVCAR-8 (Ovarian Cancer), NCI one dose 10 µM; read-out: Cell growth inhibition %
Outline: as §1

NCI-H226 = details: Homo sapiens; NCI-H226 (Non-Small Cell Lung Cancer), NCI one dose 10 µM; read-out: Cell growth inhibition %
Outline: as §1

HS 578T = details: Homo sapiens; HS 578T (Breast Cancer), NCI one dose 10 µM; read-out: Cell growth inhibition %
Outline: as §1

OVCAR-5 = details: Homo sapiens; OVCAR-5 (Ovarian Cancer), NCI one dose 10 µM; read-out: Cell growth inhibition %
Outline: as §1

BT-549 = details: Homo sapiens; BT-549 (Breast Cancer), NCI one dose 10 µM; read-out: Cell growth inhibition %
Outline: as §1

CCRF-CEM = details: Homo sapiens; CCRF-CEM (Leukemia), NCI one dose 10 µM; read-out: Cell growth inhibition %
Outline: as §1

SF-295 = details: Homo sapiens; SF-295 (CNS Cancer), NCI one dose 10 µM; read-out: Cell growth inhibition %
Outline: as §1

RPMI-8226 = details: Homo sapiens; RPMI-8226 (Leukemia), NCI one dose 10 µM; read-out: Cell growth inhibition %
Outline: as §1

SK-MEL-2 = details: Homo sapiens; SK-MEL-2 (Melanoma), NCI one dose 10 µM; read-out: Cell growth inhibition %
Outline: as §1

KM12 = details: Homo sapiens; KM12 (Colon Cancer), NCI one dose 10 µM; read-out: Cell growth inhibition %
Outline: as §1

LOX IMVI = details: Homo sapiens, LOX IMIV (Melanoma), NCI one dose 10 µM, read-out: Cell growth inhibition %
Outline: as §1

UO-31 = details: Homo sapiens; UO-31 (Renal Cancer), NCI one dose 10 µM; read-out: Cell growth inhibition %
Outline: as §1

NCI-H460 = details: Homo sapiens; NCI-H460 (Non-Small Cell Lung Cancer), NCI one dose 10 µM; read-out: Cell growth inhibition %
Outline: as §1

HT29 = details: Homo sapiens, HT-29; HT29 (Colon Cancer), NCI one dose 10 µM; read-out: Cell growth inhibition %
Outline: as §1

SK-OV-3 = details: Homo sapiens; SK-OV-3 (Ovarian Cancer), NCI one dose 10 µM; read-out: Cell growth inhibition %
Outline: as §1

DU-145 = details: Homo sapiens; DU-145 (Prostate Cancer), NCI one dose 10 µM; read-out: Cell growth inhibition %
Outline: as §1

U251 = details: Homo sapiens, U-251; U251 (CNS Cancer), NCI one dose 10 µM; read-out: Cell growth inhibition %
Outline: as §1

ACHN = details: Homo sapiens; ACHN (Renal Cancer), NCI one dose 10 µM; read-out: Cell growth inhibition %
Outline: as §1

SN12C = details: Homo sapiens, SN 12C (Renal Cancer), NCI one dose 10 µM, read-out: Cell growth inhibition %
Outline: as §1

UACC-257 = details: Homo sapiens; UACC-257 (Melanoma), NCI one dose 10 µM; read-out: Cell growth inhibition %
Outline: as §1

786-0 = details: Homo sapiens; 786-0 (Renal Cancer), NCI one dose 10 µM; read-out: Cell growth inhibition %
Outline: as §1

OVCAR-3 = details: Homo sapiens; OVCAR-3 (Ovarian Cancer), NCI one dose 10 µM; read-out: Cell growth inhibition %
Outline: as §1

CAKI-1 = details: Homo sapiens; CAKI-1 (Renal Cancer), NCI one dose 10 µM; read-out: Cell growth inhibition %
Outline: as §1

SR = details: Homo sapiens; SR (Leukemia), NCI one dose 10 µM; read-out: Cell growth inhibition %
Outline: as §1

MDA-MB-468 = details: Homo sapiens; MDA-MB-468 (Breast Cancer), NCI one dose 10 µM; read-out: Cell growth inhibition %
Outline: as §1

SMILES	inhibition at 10 µM (NCI-H23) [%]	inhibition at 10 µM (PC-3) [%]	inhibition at 10 µM (SW-620) [%]	inhibition at 10 µM (OVCAR-4) [%]	inhibition at 10 µM (IGROV1) [%]	inhibition at 10 µM (HCT-15) [%]	inhibition at 10 µM (MCF7) [%]	inhibition at 10 µM (OVCAR-8) [%]	inhibition at 10 µM (NCI-H226) [%]	inhibition at 10 µM (HS 578T) [%]	inhibition at 10 µM (OVCAR-5) [%]	inhibition at 10 µM (BT-549) [%]	inhibition at 10 µM (CCRF-CEM) [%]	inhibition at 10 µM (SF-295) [%]	inhibition at 10 µM (RPMI-8226) [%]	inhibition at 10 µM (SK-MEL-2) [%]	inhibition at 10 µM (KM12) [%]	inhibition at 10 µM (LOX IMVI) [%]	inhibition at 10 µM (UO-31) [%]	inhibition at 10 µM (NCI-H460) [%]	other results
O=C(CSc1nnc(-c2ccc3[nH]c(-c4ccc(Cl)cc4)nc3c2)o1)Nc1ccc(C(=O)/C=C/c2ccccc2)cc1 [Compound 7f, 2-{5-[2-(4-Chlorophenyl)-1 H-benzo[d]imidazol-5-yl]-1,3,4-oxadiazol-2-ylthio}-N-{4-[(E)-3-phenylacryloyl]phenyl}acetamide]	0	0	0	0	0	0	18.4	0	2.19	0	0	0	0	0	23.2	0	0	22.9	12.2	0	inhibition at 10 µM (HT29): 0%; inhibition at 10 µM (SK-OV-3): 0%; inhibition at 10 µM (DU-145): 0%; inhibition at 10 µM (U251): 3.23%; inhibition at 10 µM (ACHN): 0%; inhibition at 10 µM (SN12C): 0%; inhibition at 10 µM (UACC-257): 0%; inhibition at 10 µM (786-0): 0%; inhibition at 10 µM (OVCAR-3): 0%; inhibition at 10 µM (CAKI-1): 1.83%; inhibition at 10 µM (SR): 15.2%; inhibition at 10 µM (MDA-MB-468): 0%
O=C(CSc1nnc(-c2ccc3[nH]c(-c4ccc(Cl)cc4)nc3c2)o1)Nc1ccc(C(=O)/C=C/c2ccc(Cl)cc2)cc1 [Compound 7g, 2-{5-[2-(4-Chlorophenyl)-1 H-benzo[d]imidazol-5-yl]-1,3,4-oxadiazol-2-ylthio}-N-{4-[(E)-3-(4-chlorophenyl)acryloyl]phenyl}acetamide]	0	12.3	0	0	14.4	10.2	44.8	2.88	14	11	0	0.37	13.6	7.04	95	0	0.67	124	24.7	0	inhibition at 10 µM (HT29): 0%; inhibition at 10 µM (SK-OV-3): 0%; inhibition at 10 µM (DU-145): 0%; inhibition at 10 µM (U251): 17.8%; inhibition at 10 µM (ACHN): 1.98%; inhibition at 10 µM (SN12C): 15.1%; inhibition at 10 µM (UACC-257): 0%; inhibition at 10 µM (786-0): 7.38%; inhibition at 10 µM (OVCAR-3): 0%; inhibition at 10 µM (CAKI-1): 16.4%; inhibition at 10 µM (SR): 50.2%; inhibition at 10 µM (MDA-MB-468): 0%
